Measured values from patent US10369130B2, “Antibacterial compounds” (AZIENDE CHIMICHE RIUNITE ANGELINI FRANCESCO A.C.R.A.F. …, priority 2014, dated 2019).
Structures can show the parent of a compound that is named as a salt.

Experiments:
Assay type in all cases: biochemical
Settings in all cases: single concentration (200, 100 or 50 μM), in duplicate, versus the positive control (vehicle)
DNA gyrase [1] = biological target: T1, DNA gyrase (Staphylococcus aureus, UniProt P0A0K8+P20831); assay: DNA gyrase supercoiling assay (S. aureus)
T1 construct: purchased Inspiralis, UK
Experimental: (§1) The above compounds were tested for the inhibition of the enzyme DNA gyrase in a gyrase supercoiling assay and for the inhibition of the enzyme topoisomerase IV in a decatenation assay, in both Gram positive and Gram negative bacteria, according to the following methods.
(§2) Both the assays were carried out according to a set-up method modified from the article to Blanche F, et al. “Differential Behaviors of Staphylococcus aureus and Escherichia coli Type II DNA Topoisomerases”, Antimicrob.
(§3) The compounds were screened at single concentration (200, 100 or 50 μM), in duplicate.
(§4) Ciprofloxacin and novobiocin were used as reference compounds, at single concentration of 200 and 50 μM, respectively.
(§5) DNA Gyrase Supercoiling Assay.
(§6) Reagents from S. aureus and E. coli Gyrase Supercoiling Assay kits (Inspiralis, UK) were used. A master mix with a total volume sufficient for the number of reactions to perform was prepared with the following reagents: 5× assay buffer, relaxed pBR322 substrate (0.5 μg/reaction), RNase-DNase free water. Aliquotes of this mix were dispensed in each tube, then 10× compound stock solutions or vehicle control (DMSO), were added to each reaction tube.
(§7) Reaction was started with E. Coli (2 U/reaction) or S. aureus (1 U/reaction) gyrase enzyme addition.
(§8) A sample added with an equal volume of dilution buffer was used as negative control (without enzyme).
(§9) The reaction tubes were gentle vortexed and incubated 30 minutes at 37° C. Each reaction was stopped by adding 30 μl of Stop Buffer and 30 μl chloroform/isoamyl alcohol (24/1), briefly vortexed for 5-10 seconds and centrifuged at 20000×g for 2 minutes. Samples were loaded onto 1% agarose gel and subjected to electrophoresis for 1 hour at 80V constant voltage in TAE (40 mM Tris-acetate, 2 mM EDTA).
(§10) Data acquisition and analysis. Treatment of relaxed pBR322 with DNA gyrase converted the relaxed topoisomers (DNAs of different linking number) to the supercoiled form of the plasmid, which migrates faster on an agarose gel. An upper band might also be visible, which consists of open-circular (nicked) DNA which is present in the relaxed substrate but co-migrates with some of the relaxed topoisomers.
(§11) Bands were visualized by ethidium bromide staining (dil 1:20000) for 30 minutes followed by destaining in distilled water for 10 minutes.
(§12) In order to evaluate the compounds activity on the enzyme, the bands of supercoiled DNAs in the gel were photographed by a digital imaging system ImageQuant LAS 4000 (GE Healthcare) according to manufacturer's instructions.
(§13) The fluorescent intensity of each band was analysed by ImageQuant TL software and it was expressed as volume (volume of the uncalibrated quantity of material in the image feature after subtraction of the background intensity by using rolling ball method).
(§14) Each band intensity was compared, as percentage, to vehicle sample band intensity, which served as positive control, on the same gel.
(§15) Inhibitory activity was expressed as percent of inhibition versus the positive control.

DNA gyrase [2] = biological target: T2, DNA gyrase (Escherichia coli, UniProt P0AES4+P0AES6); assay: DNA gyrase supercoiling assay (E. coli)
T2 construct: purchased Inspiralis, UK
T2 sequence (P0AES4 whole entry, one chain of several): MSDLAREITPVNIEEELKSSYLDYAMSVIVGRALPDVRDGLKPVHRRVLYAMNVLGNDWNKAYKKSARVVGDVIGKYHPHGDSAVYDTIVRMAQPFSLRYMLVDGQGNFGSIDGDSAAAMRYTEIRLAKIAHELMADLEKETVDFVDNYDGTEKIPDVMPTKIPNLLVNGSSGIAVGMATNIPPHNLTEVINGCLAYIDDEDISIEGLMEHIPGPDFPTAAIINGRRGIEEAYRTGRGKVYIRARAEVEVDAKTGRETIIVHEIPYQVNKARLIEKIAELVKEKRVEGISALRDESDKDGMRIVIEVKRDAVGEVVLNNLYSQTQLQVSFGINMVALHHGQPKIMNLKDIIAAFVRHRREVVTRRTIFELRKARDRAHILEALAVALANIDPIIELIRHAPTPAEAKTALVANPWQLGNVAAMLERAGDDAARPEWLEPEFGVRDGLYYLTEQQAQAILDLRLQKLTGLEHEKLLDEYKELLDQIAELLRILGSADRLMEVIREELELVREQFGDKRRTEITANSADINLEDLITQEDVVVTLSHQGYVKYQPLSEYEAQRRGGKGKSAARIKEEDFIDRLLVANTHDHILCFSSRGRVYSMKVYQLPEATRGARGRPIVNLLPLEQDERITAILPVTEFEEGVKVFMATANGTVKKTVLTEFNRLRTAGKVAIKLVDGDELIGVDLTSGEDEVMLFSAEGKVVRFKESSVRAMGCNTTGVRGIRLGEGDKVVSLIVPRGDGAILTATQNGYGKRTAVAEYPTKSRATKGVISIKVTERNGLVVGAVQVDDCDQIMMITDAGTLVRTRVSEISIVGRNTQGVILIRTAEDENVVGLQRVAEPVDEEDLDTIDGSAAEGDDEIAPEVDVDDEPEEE
Experimental: as §1, §2, §3, §4, §5, §6, §7, §8, §9, §10, §11, §12, §13, §14, §15

Topoisomerase IV [3] = biological target: T3, Topoisomerase IV (Escherichia coli, UniProt P0AFI2+P20083); assay: Topoisomerase IV decatenation assay (E. coli)
T3 construct: purchased Inspiralis, UK
T3 sequence (P20083 whole entry): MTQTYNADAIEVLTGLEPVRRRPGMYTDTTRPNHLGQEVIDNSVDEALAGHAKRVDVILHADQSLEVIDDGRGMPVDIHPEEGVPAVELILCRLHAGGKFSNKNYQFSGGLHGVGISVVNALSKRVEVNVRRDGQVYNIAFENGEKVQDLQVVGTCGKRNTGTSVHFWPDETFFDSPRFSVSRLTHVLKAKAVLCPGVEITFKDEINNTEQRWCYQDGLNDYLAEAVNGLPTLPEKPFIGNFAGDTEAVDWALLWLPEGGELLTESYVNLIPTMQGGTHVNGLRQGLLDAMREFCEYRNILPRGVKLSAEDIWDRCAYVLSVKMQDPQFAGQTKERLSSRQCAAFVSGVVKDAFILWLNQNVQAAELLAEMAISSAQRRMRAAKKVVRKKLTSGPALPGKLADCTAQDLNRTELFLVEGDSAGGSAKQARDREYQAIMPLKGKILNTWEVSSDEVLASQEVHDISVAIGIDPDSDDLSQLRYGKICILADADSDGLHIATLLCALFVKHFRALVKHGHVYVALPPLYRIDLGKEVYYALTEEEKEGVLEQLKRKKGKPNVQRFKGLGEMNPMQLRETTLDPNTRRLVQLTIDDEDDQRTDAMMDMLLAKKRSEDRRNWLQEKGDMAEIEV
T3 sequence (P0AFI2 whole entry): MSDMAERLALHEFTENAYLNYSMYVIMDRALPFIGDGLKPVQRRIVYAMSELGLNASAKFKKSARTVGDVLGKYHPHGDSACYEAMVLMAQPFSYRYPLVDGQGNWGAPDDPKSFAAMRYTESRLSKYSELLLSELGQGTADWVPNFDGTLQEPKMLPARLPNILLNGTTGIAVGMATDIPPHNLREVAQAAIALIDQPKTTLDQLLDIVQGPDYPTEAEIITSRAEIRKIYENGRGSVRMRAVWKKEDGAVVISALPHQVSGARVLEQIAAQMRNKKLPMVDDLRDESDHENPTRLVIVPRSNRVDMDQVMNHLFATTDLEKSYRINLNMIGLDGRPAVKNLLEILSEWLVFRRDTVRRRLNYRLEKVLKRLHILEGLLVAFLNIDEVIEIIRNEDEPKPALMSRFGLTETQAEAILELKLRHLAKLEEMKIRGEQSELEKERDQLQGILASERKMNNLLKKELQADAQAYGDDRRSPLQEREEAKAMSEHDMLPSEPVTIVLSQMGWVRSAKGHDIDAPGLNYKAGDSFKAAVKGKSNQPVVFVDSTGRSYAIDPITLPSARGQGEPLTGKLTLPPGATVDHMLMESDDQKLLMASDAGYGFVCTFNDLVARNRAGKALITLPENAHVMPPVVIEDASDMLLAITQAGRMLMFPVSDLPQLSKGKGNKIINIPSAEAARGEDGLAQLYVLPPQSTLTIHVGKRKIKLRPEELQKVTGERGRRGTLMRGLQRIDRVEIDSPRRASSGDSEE
Experimental: as §1, §2, §3, §4
(§16) Topoisomerase IV Decatenation Assay
(§17) S. aureus and E. coli Topoisomerase IV decatenation kits (Inspiralis, UK) were used. A master mix with a total volume sufficient for the number of reactions to perform was prepared with the following reagents: 5× assay buffer (50 mM HEPES-KOH (pH 7.6), 100 mM potassium glutamate, 10 mM magnesium acetate, 10 mM DTT, 1 mM ATP, 50 μg/ml albumin), kDNA substrate (200 ng/reaction), RNase-DNase free water. Aliquots of this mix were dispensed in each tube, then 10× compound stock solutions or vehicle control (DMSO), were added in each reaction tube.
(§18) Reaction was started with Topoisomerase IV enzyme (0.5 U/reaction) addition.
as §8
(§19) The reaction tubes were gentle vortexed and incubated 30 minutes at 37° C. Each reaction was stopped by adding 30 μl of Stop Buffer and 30 μl of chloroform/isoamyl alcohol (24/1), briefly vortexed for 5-10 seconds and centrifuged at 20000×g for 2 minutes. Samples taken from the upper phase were loaded into 1% agarose gel and subjected to electrophoresis for 1 hour at 80V constant voltage in TAE (40 mM Tris-acetate, 2 mM EDTA).
(§20) Data acquisition and analysis. Due to the high molecular mass, kDNA could not enter an agarose gel under normal electrophoresis conditions, but remained in the wells. In the presence of Topo IV topoisomerase mini-circles (2.5 Kb) were released from kDNA by decatenation and were quickly and easily resolved in the gel at relatively high voltages.
as §11
(§21) For single concentration screening assay, in order to evaluate the compounds activity on the enzymes, the bands of decatenated DNAs in the gel were photographed by a digital imaging system ImageQuant LAS 4000 (GE Healthcare) according to manufacturer's instructions.
(§22) The fluorescent intensity of each band was analyzed by ImageQuant TL software and it was expressed as volume (volume of the uncalibrated quantity of material in the image feature after subtraction of the background intensity by using rolling ball method).
as §14, §15

Topoisomerase IV [4] = biological target: T4, Topoisomerase IV (Staphylococcus aureus, UniProt P0C1S7+P0C1U9); assay: Topoisomerase IV decatenation assay (S. aureus)
T4 construct: purchased Inspiralis, UK
T4 sequence (P0C1S7 whole entry): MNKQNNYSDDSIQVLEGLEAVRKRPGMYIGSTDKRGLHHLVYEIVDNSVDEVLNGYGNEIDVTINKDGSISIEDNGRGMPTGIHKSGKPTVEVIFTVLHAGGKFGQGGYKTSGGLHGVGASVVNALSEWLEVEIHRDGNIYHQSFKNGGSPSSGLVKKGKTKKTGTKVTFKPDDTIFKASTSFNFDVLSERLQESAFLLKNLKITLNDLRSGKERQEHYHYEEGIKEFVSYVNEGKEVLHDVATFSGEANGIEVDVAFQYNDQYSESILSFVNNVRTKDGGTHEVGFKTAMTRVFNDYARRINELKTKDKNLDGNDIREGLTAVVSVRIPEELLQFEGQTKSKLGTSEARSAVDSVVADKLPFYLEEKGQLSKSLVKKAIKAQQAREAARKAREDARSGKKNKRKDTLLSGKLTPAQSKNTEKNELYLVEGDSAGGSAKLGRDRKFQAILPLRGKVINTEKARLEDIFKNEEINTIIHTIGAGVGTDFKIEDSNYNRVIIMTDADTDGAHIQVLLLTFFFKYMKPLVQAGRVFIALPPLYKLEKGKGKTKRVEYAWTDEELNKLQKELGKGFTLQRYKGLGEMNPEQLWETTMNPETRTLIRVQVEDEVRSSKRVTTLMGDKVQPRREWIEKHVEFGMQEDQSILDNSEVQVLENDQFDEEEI
T4 sequence (P0C1U9 whole entry): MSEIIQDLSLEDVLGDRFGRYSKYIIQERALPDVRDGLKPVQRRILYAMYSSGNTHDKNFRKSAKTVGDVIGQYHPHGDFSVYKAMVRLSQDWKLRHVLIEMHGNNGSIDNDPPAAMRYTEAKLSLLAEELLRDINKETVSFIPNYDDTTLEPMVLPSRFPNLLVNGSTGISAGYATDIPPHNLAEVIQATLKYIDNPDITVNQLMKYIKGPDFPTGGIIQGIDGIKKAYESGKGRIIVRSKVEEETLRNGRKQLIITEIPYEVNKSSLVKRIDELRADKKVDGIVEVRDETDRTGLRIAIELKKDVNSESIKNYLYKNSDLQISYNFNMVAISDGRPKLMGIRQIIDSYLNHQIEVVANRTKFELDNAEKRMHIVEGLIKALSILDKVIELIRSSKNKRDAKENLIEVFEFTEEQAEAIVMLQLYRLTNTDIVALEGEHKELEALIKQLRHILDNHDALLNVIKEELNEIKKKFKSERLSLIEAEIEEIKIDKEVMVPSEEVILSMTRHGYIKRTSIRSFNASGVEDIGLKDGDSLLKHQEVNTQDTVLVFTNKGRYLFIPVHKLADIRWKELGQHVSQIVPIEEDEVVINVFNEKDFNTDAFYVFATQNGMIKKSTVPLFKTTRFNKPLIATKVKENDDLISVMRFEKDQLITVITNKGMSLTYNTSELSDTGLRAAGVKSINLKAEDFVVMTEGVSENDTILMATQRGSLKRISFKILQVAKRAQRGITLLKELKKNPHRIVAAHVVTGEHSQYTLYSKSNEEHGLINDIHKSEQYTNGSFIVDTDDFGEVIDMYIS
Experimental: as §1, §2, §3, §4, §16, §17, §18, §8, §19, §20, §11, §21, §22, §14, §15

| SMILES | % inhibition DNA gyrase (DNA gyrase [1]) | % inhibition DNA gyrase (DNA gyrase [2]) | % inhibition Topo IV (Topoisomerase IV [3]) | % inhibition Topo IV (Topoisomerase IV [4]) |
| --- | --- | --- | --- | --- |
| O=C(NCCN1CCN(c2nccc3ccccc23)CC1)c1ccccc1 [Compound 4, N-{2-[4-(isoquinolin-1-yl)piperazin-1-yl]ethyl}benzamide hydrochloride] | 84% | n/a (n/a = not active) | 53% | n/a (n/a = not active) |
| Cc1cc2ccccc2c(N2CCN(CCCNC(=O)c3cccnc3)CC2)n1 [Compound 21, N-{3-[4-(3-methylisoquinolin-1-yl)piperazin-1-yl]propyl}pyridine-3-carboxamide hydrochloride] | 67% | n/a (n/a = not active) | n/a (n/a = not active) | n/a (n/a = not active) |
| O=C(NCCCN1CCN(c2nccc3ccccc23)CC1)c1cnc2ccoc2c1 [Compound 31, N-{3-[4-(isoquinolin-1-yl)piperazin-1-yl]propyl}furo[3,2-b]pyridine-6-carboxamide hydrochloride] | 65% | n/a (n/a = not active) | n/a (n/a = not active) | n/a (n/a = not active) |
| Cc1ccc2c(N3CCN(CCCNC(=O)c4cccnc4)CC3)nccc2c1 [Compound 35, N-{3-[4-(6-methylisoquinolin-1-yl)piperazin-1-yl]propyl}pyridine-3-carboxamide] | 78% | n/a (n/a = not active) | n/a (n/a = not active) | n/a (n/a = not active) |
| COc1ccc2c(N3CCN(CCCNC(=O)c4cccnc4)CC3)nccc2c1 [Compound 36, N-{3-[4-(6-methoxyisoquinolin-1-yl)piperazin-1-yl]propyl}pyridine-3-carboxamide hydrochloride] | 90% | n/a (n/a = not active) | n/a (n/a = not active) | n/a (n/a = not active) |
| Fc1ccc(F)c(CNCCCN2CCN(c3nccc4ccccc34)CC2)c1 [Compound 38, N-(2,5-difluorobenzyl)-3-[4-(isoquinolin-1-yl)piperazin-1-yl]propan-1-amine hydrochloride] | 63% | n/a (n/a = not active) | n/a (n/a = not active) | n/a (n/a = not active) |
| O=C(NCCCN1CCN(c2nccc3ccccc23)CC1)c1cc(F)ccc1F [Compound 39, 2,5-difluoro-N-{3-[4-(isoquinolin-1-yl)piperazin-1-yl]propyl}benzamide hydrochloride] | 74% | 50% | n/a (n/a = not active) | n/a (n/a = not active) |
| O=C(NCCCN1CCN(c2nccc3ccccc23)CC1)c1cc2ccoc2cn1 [Compound 42, N-{3-[4-(isoquinolin-1-yl)piperazin-1-yl]propyl}furo[2,3-c]pyridine-5-carboxamide hydrochloride] | 84% | n/a (n/a = not active) | n/a (n/a = not active) | n/a (n/a = not active) |
| O=C(NCCCN1CCN(c2nccc3ncccc23)CC1)c1cccnc1 [Compound 43, N-{3-[4-(1,6-naphthyridin-5-yl)piperazin-1-yl]propyl}pyridine-3-carboxamide hydrochloride] | 100% | n/a (n/a = not active) | n/a (n/a = not active) | n/a (n/a = not active) |
| O=C(NCCCN1CCN(c2nccc3cc(F)ccc23)CC1)c1cccnc1 [Compound 45, N-{3-[4-(6-fluoroisoquinolin-1-yl)piperazin-1-yl]propyl}pyridine-3-carboxamide hydrochloride] | 81% | n/a (n/a = not active) | n/a (n/a = not active) | n/a (n/a = not active) |
| O=c1cc(NCCCN2CCN(c3cccc4ccccc34)CC2)c2ccccc2o1 [Compound 50, 4-({3-[4-(naphthalen-1-yl)piperazin-1-yl]propyl}amino)-2H-chromen-2-one hydrochloride] | n/a (n/a = not active) | 92% | n/a (n/a = not active) | n/a (n/a = not active) |
| CN(CCCN1CCN(c2nccc3ccccc23)CC1)c1cc(=O)oc2ccccc12 [Compound 53, 4-[{3-[4-(isoquinolin-1-yl)piperazin-1-yl]propyl}(methyl)amino]-2H-chromen-2-one hydrochloride] | 57% | 64% | n/a (n/a = not active) | n/a (n/a = not active) |
| O=c1cc(NCCCN2CCN(c3nccc4ccccc34)CC2)cc(-c2ccccc2)o1 [Compound 60, 4-({3-[4-(isoquinolin-1-yl)piperazin-1-yl]propyl}amino)-6-phenyl-2H-pyran-2-one hydrochloride] | 89% | 100% | n/a (n/a = not active) | n/a (n/a = not active) |
| O=c1cc(N2CCN(CCCNc3cc(=O)oc4ccccc34)CC2)c2ccccc2[nH]1 [Compound 68, 4-(4-{3-[(2-oxo-2H-chromen-4-yl)amino]propyl}piperazin-1-yl)quinolin-2(1H)-one hydrochloride] | n/a (n/a = not active) | 100% | n/a (n/a = not active) | n/a (n/a = not active) |
| O=c1cc(OCCCN2CCN(c3nccc4ccccc34)CC2)c2ccccc2o1 [Compound 70, 4-{3-[4-(isoquinolin-1-yl)piperazin-1-yl]propoxy}-2H-chromen-2-one hydrochloride] | 75% | 86% | n/a (n/a = not active) | n/a (n/a = not active) |
| O=C1CN(c2nccc3ccccc23)CCN1CCCNc1cc(=O)oc2ccccc12 [Compound 71, 4-(isoquinolin-1-yl)-1-{3-[(2-oxo-2H-chromen-4-yl)amino]propyl}piperazin-2-one hydrochloride] | n/a (n/a = not active) | 56% | n/a (n/a = not active) | n/a (n/a = not active) |
| O=c1cc(NC2CCCC(N3CCN(c4nccc5ccccc45)CC3)C2)c2ccccc2o1 (centres unmarked) [Compound 74, 4-({3-[4-(isoquinolin-1-yl)piperazin-1-yl]cyclohexyl}amino)-2H-chromen-2-one hydrochloride] | 61% | 65% | n/a (n/a = not active) | n/a (n/a = not active) |
